Assay results published in patent publication US12448399B2, “Cereblon-based KRAS degrading PROTACs and uses related thereto” (Arvinas Operations, Inc., priority 2023, dated 2025).
One block for each molecule: values may come before it.

Target: T1, KRas-G12D (Homo sapiens, UniProt P01116, G12D)
T1 construct: insert the HiBiT tag onto the N-terminus of one or more of the endogenous KRas alleles; host or cells: AsPC-1 HiBiT-KRasG12D knock-in clone (one tagged allele, two untagged KRasG12D alleles)
Test: HiBiT Degradation Assay (G12D), AsPC-1 HiBiT-KRasG12D cells, 24 hr
Assay type: cell-based
Details: for DC50: AsPC-1 cells; for Dmax: ASPC1, AsPC-1 cells, maximum degradation observed
Procedure, shortened: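 Degradation was read after 24 hr compound exposure (0.5% DMSO, 37° C) by Nano-Glo HiBiT lytic luminescence in AsPC-1 cells carrying a HiBiT tag on one of three KRasG12D alleles. Signal relative to DMSO gave DC50 and Dmax by 4-parameter fit; alamar blue fluorescence monitored cytotoxicity.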

T1 sequence (P01116 1-188 isoform P01116-2 G12D): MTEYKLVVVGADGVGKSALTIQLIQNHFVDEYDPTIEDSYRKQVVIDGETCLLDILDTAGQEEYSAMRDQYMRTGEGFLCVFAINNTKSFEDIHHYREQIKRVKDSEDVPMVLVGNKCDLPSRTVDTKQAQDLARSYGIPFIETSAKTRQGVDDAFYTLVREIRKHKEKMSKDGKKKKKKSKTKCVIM

- DC50: > 1 µM
SMILES: CCc1cccc2cc(O)cc(-c3ncc4c(N5CC6CCC(C5)N6)nc(OCCN5CCC(CC6CCN(c7ccc8c(c7)C(=O)N(C7CCC(=O)NC7=O)C8=O)CC6)CC5)nc4c3F)c12 (stereo not drawn) [Compound 67, 5-[4-[[1-[2-[4-(3,8-diazabicyclo[3.2.1]octan-3-yl)-7-(8-ethyl-3-hydroxy-1-naphthyl)-8-fluoro-pyrido[4,3-d]pyrimidin-2-yl]oxyethyl]-4-piperidyl]methyl]-1-piperidyl]-2-(2,6-dioxo-3-piperidyl)isoindoline-1,3-dione]

SMILES: C#Cc1c(F)ccc2cc(O)cc(-c3ncc4c(C5CC6CCC(C5)N6)nc(OCCN5CCC(CC6CCN(CC7CCN(c8ccc9c(c8)CN(C8CCC(=O)NC8=O)C9=O)CC7)CC6)CC5)nc4c3F)c12 (stereo not drawn) [Compound 68]
- Dmax: > 70%
- DC50: < 5.1 µM

SMILES: C#Cc1c(F)ccc2cc(O)cc(-c3ncc4c(C5CC6CCC(C5)N6)nc(OCCN5CCC6(CC5)CCN(CC5CCN(c7ccc8c(c7)CN(C7CCC(=O)NC7=O)C8=O)CC5)CC6)nc4c3F)c12 (stereo not drawn) [Compound 70]
- Dmax: > 70%
- DC50: < 5.1 µM

SMILES: CCc1cccc2cc(O)cc(-c3ncc4c(C5CC6CCC(C5)N6)nc(OC[C@@H]5C[C@@H](OC6CCN(CC7CCN(c8ccc9c(c8)CN(C8CCC(=O)NC8=O)C9=O)CC7)CC6)CN5C)nc4c3F)c12 (stereo partly drawn) [Compound 71]
- Dmax: > 70%
- DC50: < 5.1 µM

SMILES: C#Cc1c(F)ccc2cc(O)cc(-c3ncc4c(C5CC6CCC(C5)N6)nc(OCCN5CCC(CN6CC7(CCN(c8ccc9c(c8)CN(C8CCC(=O)NC8=O)C9=O)CC7)C6)CC5)nc4c3F)c12 (stereo not drawn) [Compound 72]
- Dmax: > 70%
- DC50: < 5.1 µM

SMILES: C#Cc1c(F)ccc2cc(O)cc(-c3ncc4c(C5CC6CCC(C5)N6)nc(OCCN5CCC(CC6CCN(CC7CCN(c8ccc9c(c8)C(=O)N(C8CCC(=O)NC8=O)C9=O)CC7)CC6)CC5)nc4c3F)c12 (stereo not drawn) [Compound 74]
- Dmax: > 70%
- DC50: < 5.1 µM

- DC50: < 5.1 µM
SMILES: C#Cc1c(F)ccc2cc(O)cc(-c3ncc4c(N5CC6CCC(C5)N6)nc(OCCN5CCC(CC6CCN(CC7CCN(c8cccc9c8C(=O)N(C8CCC(=O)NC8=O)C9=O)CC7)CC6)CC5)nc4c3F)c12 (stereo not drawn) [Compound 75]

SMILES: C#Cc1c(F)ccc2cc(O)cc(-c3ncc4c(N5CC6CCC(C5)N6)nc(OCCN5CCC6(CC5)CCN(CC5CCN(c7ccc8c(c7)C(=O)N(C7CCC(=O)NC7=O)C8=O)CC5)CC6)nc4c3F)c12 (stereo not drawn) [Compound 76]
- Dmax: > 70%
- DC50: < 5.1 µM

SMILES: CCc1cccc2cc(O)cc(-c3ncc4c(N5CC6CCC(C5)N6)nc(OC[C@@H]5C[C@@H](OC6CCN(c7ccc8c(c7)CN(C7CCC(=O)NC7=O)C8=O)CC6)CN5C)nc4c3F)c12 (stereo partly drawn) [Compound 77]
- Dmax: > 70%
- DC50: < 5.1 µM

SMILES: C#Cc1c(F)ccc2cc(O)cc(-c3ncc4c(N5CC6CCC(C5)N6)nc(OCCN5CCC(C(F)(F)C6CCN(CC7CCN(c8ccc9c(c8F)CN(C8CCC(=O)NC8=O)C9=O)CC7)CC6)CC5)nc4c3F)c12 (stereo not drawn) [Compound 79, 3-{5-[4-({4-[(1-{2-[(4-{3,8-diazabicyclo[3.2.1]octan-3-yl}-7-(8-ethynyl-7-fluoro-3-hydroxynaphthalen-1-yl)-8-fluoropyrido[4,3-d]pyrimidin-2-yl)oxy]ethyl}piperidin-4-yl)difluoromethyl]piperidin-1-yl}methyl)piperidin-1-yl]-4-fluoro-1-oxo-2,3-dihydro-1H-isoindol-2-yl}piperidine-2,6-dione]
- Dmax: > 70%
- DC50: < 5.1 µM

SMILES: C#Cc1c(F)ccc2cc(O)cc(-c3ncc4c(N5CC6CCC(C5)N6)nc(OCCN5CCC(CN6CCC(CC7CCN(c8ccc9c(c8)n(C(C)C)c(=O)n9C8CCC(=O)NC8=O)CC7)CC6)CC5)nc4c3F)c12 (stereo not drawn) [Compound 80, 3-{5-[4-({1-[(1-{2-[(4-{3,8-diazabicyclo[3.2.1]octan-3-yl}-7-(8-ethynyl-7-fluoro-3-hydroxynaphthalen-1-yl)-8-fluoropyrido[4,3-d]pyrimidin-2-yl)oxy]ethyl}piperidin-4-yl)methyl]piperidin-4-yl}methyl)piperidin-1-yl]-2-oxo-3-(propan-2-yl)-2,3-dihydro-1H-1,3-benzodiazol-1-yl}piperidine-2,6-dione]
- Dmax: > 70%
- DC50: < 5.1 µM

SMILES: C#Cc1c(F)ccc2cc(O)cc(-c3ncc4c(N5CC6CCC(C5)N6)nc(OCCN5CCC(CN6CCC(CC7CCN(c8ccc9c(c8Cl)CN(C8CCC(=O)NC8=O)C9=O)CC7)CC6)CC5)nc4c3F)c12 (stereo not drawn) [Compound 81, 3-{4-chloro-5-[4-({1-[(1-{2-[(4-{3,8-diazabicyclo[3.2.1]octan-3-yl}-7-(8-ethynyl-7-fluoro-3-hydroxynaphthalen-1-yl)-8-fluoropyrido[4,3-d]pyrimidin-2-yl)oxy]ethyl}piperidin-4-yl)methyl]piperidin-4-yl}methyl)piperidin-1-yl]-1-oxo-2,3-dihydro-1H-isoindol-2-yl}piperidine-2,6-dione]
- Dmax: > 70%
- DC50: < 5.1 µM

SMILES: C#Cc1c(F)ccc2cc(O)cc(-c3ncc4c(N5CC6CCC(C5)N6)nc(OCCN5CCC(CN6CCC(CC7CCN(c8ccc9c(c8)n(C)c(=O)n9C8CCC(=O)NC8=O)CC7)CC6)CC5)nc4c3F)c12 (stereo not drawn) [Compound 82, 3-{5-[4-({1-[(1-{2-[(4-{3,8-diazabicyclo[3.2.1]octan-3-yl}-7-(8-ethynyl-7-fluoro-3-hydroxynaphthalen-1-yl)-8-fluoropyrido[4,3-d]pyrimidin-2-yl)oxy]ethyl}piperidin-4-yl)methyl]piperidin-4-yl}methyl)piperidin-1-yl]-3-methyl-2-oxo-2,3-dihydro-1H-1,3-benzodiazol-1-yl}piperidine-2,6-dione]
- Dmax: > 70%
- DC50: < 5.1 µM

SMILES: C#Cc1c(F)ccc2cc(O)cc(-c3ncc4c(N5CC6CCC(C5)N6)nc(OCCN5CCC6(CC5)CCN(CC5CCN(c7cccc8c7n(C)c(=O)n8C7CCC(=O)NC7=O)CC5)CC6)nc4c3F)c12 (stereo not drawn) [Compound 83, 3-(4-{4-[(9-{2-[(4-{3,8-diazabicyclo[3.2.1]octan-3-yl}-7-(8-ethynyl-7-fluoro-3-hydroxynaphthalen-1-yl)-8-fluoropyrido[4,3-d]pyrimidin-2-yl)oxy]ethyl}-3,9-diazaspiro[5.5]undecan-3-yl)methyl]piperidin-1-yl}-3-methyl-2-oxo-2,3-dihydro-1H-1,3-benzodiazol-1-yl)piperidine-2,6-dione]
- Dmax: > 70%
- DC50: < 5.1 µM

SMILES: C#Cc1c(F)ccc2cc(O)cc(-c3ncc4c(N5CC6CCC(C5)N6)nc(OC[C@]56CCCN5[C@H](CN5CCN(CC7CCN(c8ccc9c(c8)CN(C8CCC(=O)NC8=O)C9=O)CC7)CC5)CC6)nc4c3F)c12 (stereo partly drawn) [Compound 84, 3-[5-[4-[[4-[[(3S,8R)-8-[[4-(3,8-diazabicyclo[3.2.1]octan-3-yl)-7-(8-ethynyl-7-fluoro-3-hydroxy-1-naphthyl)-8-fluoro-pyrido[4,3-d]pyrimidin-2-yl]oxymethyl]-1,2,3,5,6,7-hexahydropyrrolizin-3-yl]methyl]piperazin-1-yl]methyl]-1-piperidyl]-1-oxo-isoindolin-2-yl]piperidine-2,6-dione]
- Dmax: > 70%
- DC50: < 5.1 µM

SMILES: CCc1c(F)ccc2cc(O)cc(-c3ncc4c(N5CC6CCC(C5)N6)nc(OC[C@@H]5C[C@@H](OC6CCN(CC7CCN(c8ccc9c(c8)CN(C8CCC(=O)NC8=O)C9=O)CC7)CC6)CN5C)nc4c3F)c12 (stereo partly drawn) [Compound 85, 3-(5-{4-[(4-{[(3R,5S)-5-{[(4-{3,8-diazabicyclo[3.2.1]octan-3-yl}-7-(8-ethyl-7-fluoro-3-hydroxynaphthalen-1-yl)-8-fluoropyrido[4,3-d]pyrimidin-2-yl)oxy]methyl}-1-methylpyrrolidin-3-yl]oxy}piperidin-1-yl)methyl]piperidin-1-yl}-1-oxo-2,3-dihydro-1H-isoindol-2-yl)piperidine-2,6-dione]
- Dmax: > 70%
- DC50: < 5.1 µM

SMILES: CCc1c(F)ccc2cc(O)cc(-c3ncc4c(N5CC6CCC(C5)N6)nc(OCCN5CCC(CC6CCN(CC7CCN(c8ccc9c(c8)CN(C8CCC(=O)NC8=O)C9=O)CC7)CC6)CC5)nc4c3F)c12 (stereo not drawn) [Compound 86, 3-{5-[4-({4-[(1-{2-[(4-{3,8-diazabicyclo[3.2.1]octan-3-yl}-7-(8-ethyl-7-fluoro-3-hydroxynaphthalen-1-yl)-8-fluoropyrido[4,3-d]pyrimidin-2-yl)oxy]ethyl}piperidin-4-yl)methyl]piperidin-1-yl}methyl)piperidin-1-yl]-1-oxo-2,3-dihydro-1H-isoindol-2-yl}piperidine-2,6-dione]
- Dmax: > 70%
- DC50: < 5.1 µM

SMILES: C#Cc1c(F)ccc2cc(O)cc(-c3ncc4c(N5CC6CCC(C5)N6)nc(OCCN5CCC(CN6CCC(CC7CCN(c8ccc9c(c8)CN(C8CCC(=O)NC8=O)C9=O)CC7)CC6)CC5)nc4c3F)c12 (stereo not drawn) [Compound 87, 3-[5-[4-[[1-[[1-[2-[4-(3,8-diazabicyclo[3.2.1]octan-3-yl)-7-(8-ethynyl-7-fluoro-3-hydroxy-1-naphthyl)-8-fluoropyrido[4,3-d]pyrimidin-2-yl]oxyethyl]-4-piperidyl]methyl]-4-piperidyl]methyl]-1-piperidyl]-1-oxo-isoindolin-2-yl]piperidine-2,6-dione]
- Dmax: > 70%
- DC50: < 5.1 µM

SMILES: C#Cc1c(F)ccc2cc(O)cc(-c3ncc4c(N5CC6CCC(C5)N6)nc(OCCN5CCC(CN6CCC(CC7CCN(c8ccc9c(c8F)CN(C8CCC(=O)NC8=O)C9=O)CC7)CC6)CC5)nc4c3F)c12 (stereo not drawn) [Compound 88, 3-{5-[4-({1-[(1-{2-[(4-{3,8-diazabicyclo[3.2.1]octan-3-yl}-7-(8-ethynyl-7-fluoro-3-hydroxynaphthalen-1-yl)-8-fluoropyrido[4,3-d]pyrimidin-2-yl)oxy]ethyl}piperidin-4-yl)methyl]piperidin-4-yl}methyl)piperidin-1-yl]-4-fluoro-1-oxo-2,3-dihydro-1H-isoindol-2-yl}piperidine-2,6-dione]
- Dmax: > 70%
- DC50: < 5.1 µM
